Source: EP4474386A1, “ANTHRACYCLINES” (priority 2023, dated 2024)
“Also recorded” adds a separate entry of the source.

Columns and labels:
[1] = test system: γH2AX levels in K562 cells; experiment: Assay 3: Western blot of γH2AX levels (DNA damage); type: cell-based, human; conditions: 10 µM, 2 h, FIGS. 3A & 3B
Method: Cells were seeded into 12-well format (e.g. 250.000 cells/well for K562, or Mjs), treated with indicated drugs at 10 µM for 2 hours. Subsequently, drugs were removed by extensive washing and cells were collected and processed immediately for the assays. Cells were lysed directly in SDS-sample buffer (2%SDS, 10% glycerol, 5% β-mercaptoethanol, 60mM Tris-HCl pH 6.8 and 0.01% bromophenol blue). Samples were separated by SDS-PAGE and transferred to a PVDF membrane (Immobilon-P, 0.45µm, Millipore). Blocking of the filters and antibody incubations were done in PBS supplemented with 0.1 (v/v)% Tween and 5% (w/v) milk powder (Skim milk powder, LP0031, Oxiod). Blots were imaged by the Odyssey Classic imager (Li-Cor). Intensity of bands was quantified using imaged or Image Studio software. For CFGE: DNA double strand breaks were quantified by constant-field gel electrophoresis as described in Wlodek D., Banáth J., & Olive P. L., International Journal of Radiation Biology, 1991, 60:5, 779-790. Images were quantified using imaged software.
Primary antibodies used for Western blotting: γH2AX (1:1000, 05-036, Millipore), β-actin (1:10000, A5441, Sigma). […]
Assay 3. […] This was determined by assessing γH2AX levels (see Kuo, L. J., Yang, L. X. In Vivo. April 2008, pp 305-310) using the assay for Western blot analysis described herein. […]

MelJuSo-PAGFP-H2A cells = experiment: Assay 4: Microscopy analysis, PAGFP-H2A photoactivation and time-lapse confocal imaging (histone eviction); type: cell-based, human; conditions: 10 µM, 1 hour time-lapse; FIG. 4A
Method: For PAGFP-H2A photoactivation and time-lapse confocal imaging, cells were seeded in a 35mm glass bottom petri dish (Poly-dlysine-Coated, MatTek Corporation), and imaged 16 hours later as described in Pang, B., Qiao, X., Janssen, L. et al. Nat Commun 4, 2013, 1908 for one hour following addition of 10µM of the indicated drugs. Time-lapse confocal imaging was performed on a Leica SP8 confocal microscope system 63x lens, equipped with a climate chamber. Movies were quantified using imaged software.
Assay 4. This assay visualised histone eviction and subsequently, the chromatin damage induced by the compounds embodying the present invention could be assessed. The method followed is described in the assay for microscopy analysis described herein.

[2] = test system: DNA double-strand breaks in K562 cells; experiment: Assay 2: Constant-field gel electrophoresis (CFGE), DNA double-strand breaks; type: cell-based, human; conditions: 10 µM, 2 hours, FIGS. 3C & 3D
Method: Cells were seeded into 12-well format (e.g. 250.000 cells/well for K562, or Mjs), treated with indicated drugs at 10 µM for 2 hours. Subsequently, drugs were removed by extensive washing and cells were collected and processed immediately for the assays. DNA double strand breaks were quantified by constant-field gel electrophoresis as described in Wlodek D., Banáth J., & Olive P. L., International Journal of Radiation Biology, 1991, 60:5, 779-790. Images were quantified using imaged software.
Assay 2. Because anthracycline drugs can also evict histones, including H2AX, the levels of phosphorylated H2AX might be affected. To determine DNA double-strand break induction by the compounds embodying the present invention at the DNA level, we assessed the DNA damage capacity of all the compounds by using constant field gel electrophoresis (CFGE), as described below, a more direct method to detect DNA breaks. The results are set out in FIGS. 3C & 3D.

[3] = test system: human myelogenous leukemic cell line K562; experiment: Assay 1: Short-term growth inhibition viability assay (CellTiter-Blue); type: cell-based; conditions: K562 cells
Method: Cells were seeded into 96-well format (e.g. 2000 cells/well for K562, Mjs, or U2O cells). 24 hours after seeding, cells were treated with indicated compounds for 2 hours at various concentrations. Subsequently, compounds were removed, and cells were left to grow for an additional 72 hours. Cell viability was measured using the CellTiter-Blue viability assay (Promega). Relative survival was normalized to the untreated control and corrected for background signal.
K562 cells (B. Pang, Leiden University Medical Center, the Netherlands) were maintained in RPMI-1640 medium supplemented with 8% FCS. MelJuSo cells were maintained in IMDM supplemented with 8% FCS. MelJuSo cells stably expressing PAGFP-H2A were maintained in IMDM supplemented with 8% FCS and G-418, as described in Pang, B., Qiao, X., Janssen, L. et al. Nat Commun 4, 1908 (2013). U2Os cells (ATCC® HTB-96) were maintained in DMEM medium supplemented with 8% FCS. Cell lines were maintained in a humidified atmosphere of 5% CO2 at 37°C, regularly tested for the absence of mycoplasma and the origin of cell lines was validated using STR analysis.
Assay 1. Anthracyclines are often used in the treatment of acute myeloid leukaemia and other haematological malignancies. Therefore, the compounds shown in FIG. 1 were assayed for their activity versus human myelogenous leukemic cell line K562 in order to determine their cytotoxicity in vitro, using the assay for short-term growth inhibition viability described herein. […] IC50 is expressed in µM and represents the concentration of compound required to inhibit cell proliferation by 50%.

SMILES	DNA damage (γH2AX levels) [1]	chromatin damage / rate of histone eviction (in words) (MelJuSo-PAGFP-H2A cells)	DNA double-strand break induction (CFGE) [2]	cytotoxicity (in words, compared with reference anthracyclines) ([3]; FIG. 2A)	IC50 ([3]; 2 hours treatment, then 72 hours growth)	times more cytotoxic than doxorubicin (1) ([3]; relative to doxorubicin (1))
CC(=O)[C@]1(O)Cc2c(O)c3c(c(O)c2[C@@H](O[C@H]2C[C@H](N(C)C)[C@H](O)[C@H](C)O2)C1)C(=O)c1ccccc1C3=O [Compound 18, N,N-dimethylidarubicin]	did not induce DNA damage	superior chromatin damage activity relative to doxorubicin (1); also recorded: improved or comparable toxicity and rate of histone eviction relative to doxorubicin (1) and idarubicin (17)	do not induce DNA; also recorded: does not induce any DNA double-strand breaks			
CC(=O)[C@]1(O)Cc2c(O)c3c(c(O)c2[C@@H](O[C@H]2C[C@H](N(C)C)[C@H](O[C@H]4C[C@H](O)[C@H](O[C@H]5CCC(=O)[C@H](C)O5)[C@H](C)O4)[C@H](C)O2)C1)C(=O)c1ccccc1C3=O [Compound 26, 7-[2,3-Dideoxy-4-ulo-α-L-fucopyranosyl-2-deoxy-α-L-fucopyranosyl-(1→4)- -2,3-dideoxy-3-dimethylamino-α-L-fucopyranoside]-idarubicinone]	did not induce DNA damage	superior chromatin damage activity relative to doxorubicin (1); also recorded: fastest histone eviction activity; also recorded: more efficient in terms of histone eviction	do not induce DNA; also recorded: not inducing any DNA double-strand breaks	considerably more cytotoxic than doxorubicin (1); also recorded: most effective compound tested; also recorded: more toxic than doxorubicin (1), aclarubicin (2) and idarubicin (17)	20 nM	16 times
